Values of other authors in patent publication US20250043462A1, “INSECT REPELLENT POLYETHYLENE TEREPHTHALATE FIBERS” (The Government of the United States of America, as …, priority 2023, published 2025).

Details: commercially available repellent sprays

SMILES	duration of repellency before reapplication
CCN(CC)C(=O)c1cccc(C)c1 [DEET, N,N,-diethyl-meta-toluamide]	up to 10 h
CCC(C)OC(=O)N1CCCCC1CCO (centres unmarked) [Picaridin, 1-(1-methylpropoxycarbonyl)-2-(2-hydroxyethyl)piperidine]	≤ 8 h
